Experimental data from the NIST ThermoML archive (doi:10.1016/j.jct.2018.08.005).

Test: xn = mol fraction of the nth substance listed
Settings: Liquid; for mass density: Vibrating tube method; for speed of sound: Frequency=3 MHz, Pulse-echo method

CCOC(F)(C(F)(F)C(F)(F)C(F)(F)F)C(F)(C(F)(F)F)C(F)(F)F (stereo not given) [2-trifluoromethyl-3-ethoxydodecafluorohexane] + CC(C)OC(C)C
Settings | mass density, x1 = 0.25 [kg/m3] | mass density, x1 = 0.375 [kg/m3] | mass density, x1 = 0.5 [kg/m3] | mass density, x1 = 0.625 [kg/m3] | mass density, x1 = 0.75 [kg/m3] | speed of sound, x1 = 0.25 [m/s] | speed of sound, x1 = 0.375 [m/s] | speed of sound, x1 = 0.5 [m/s] | speed of sound, x1 = 0.625 [m/s] | speed of sound, x1 = 0.75 [m/s]
303.15 K, 20000 kPa | – | 1201.2 | 1314.1 | 1417.3 | 1505.1 | – | – | – | – | –
303.15 K, 30000 kPa | 1087.7 | 1217 | 1331.1 | 1435.3 | 1523.8 | – | – | – | – | –
303.15 K, 40000 kPa | 1100.3 | 1231.1 | 1346.3 | 1451.3 | 1540.4 | 1001.7 | 948.6 | 909.1 | 889.5 | 864.7
303.15 K, 50000 kPa | 1111.7 | 1243.8 | 1360 | 1465.8 | 1555.5 | – | – | – | – | –
303.15 K, 60000 kPa | 1122.1 | 1255.4 | 1372.6 | 1479.2 | 1569.3 | 1089.1 | 1032.1 | 989.8 | 969.5 | 941.8
303.15 K, 70000 kPa | 1131.8 | 1266.2 | 1384.2 | 1491.4 | 1582.1 | – | – | – | – | –
303.15 K, 80000 kPa | 1140.8 | 1276.1 | 1395.1 | 1502.8 | 1594 | 1164.4 | 1104 | 1059.8 | – | 1008.7
303.15 K, 90000 kPa | 1149.3 | 1285.5 | 1405.2 | 1513.6 | 1605.2 | – | – | – | – | –
303.15 K, 100000 kPa | 1157.3 | 1294.3 | 1414.8 | 1523.7 | 1615.8 | 1231.9 | 1170.1 | 1123 | 1101.7 | 1068.1
303.15 K, 110000 kPa | 1164.9 | 1302.8 | 1423.9 | 1533.3 | 1625.8 | – | – | – | – | –
303.15 K, 120000 kPa | 1172.1 | 1310.8 | 1432.6 | 1542.4 | 1635.3 | – | – | – | – | –
303.15 K, 130000 kPa | 1178.8 | 1318.4 | 1440.8 | 1551.2 | 1644.4 | – | – | – | – | –
303.15 K, 140000 kPa | 1185.4 | 1325.9 | 1448.7 | 1559.5 | 1653.1 | – | – | – | – | –
313.15 K, 100 kPa | 1022.4 | 1144.5 | 1253.4 | 1351.8 | 1438.4 | 729.6 | – | 656.3 | 641.2 | 626.5
313.15 K, 10000 kPa | 1042.9 | 1167.7 | 1278.3 | 1378.1 | 1465.4 | – | – | – | – | –
313.15 K, 20000 kPa | 1060.3 | 1187.2 | 1299.2 | 1400.1 | 1488.1 | 870.2 | 821.7 | 786.8 | 769.5 | 749.4
313.15 K, 30000 kPa | 1075.3 | 1203.9 | 1317.2 | 1419.2 | 1507.8 | – | – | – | – | –
313.15 K, 40000 kPa | 1088.5 | 1218.6 | 1333.1 | 1436 | 1525.3 | 975.8 | 924.1 | 885.6 | 866.8 | 843.3
313.15 K, 50000 kPa | 1100.5 | 1232 | 1347.4 | – | – | – | – | – | – | –
